How the values were obtained:
[1] = system: rat pancreatic islet cells; test: Insulin release from rat pancreatic islets (ELISA); format: cell-based
Procedure: FIGS. 3A-C show cytopiloyne-mediated insulin release depends on pancreatic islet cells. (A) Rat pancreatic islet cells were incubated with glucose-free KRB buffer containing vehicle or cytopiloyne at 1.5, 3, 7, 14, 28 and 42 μM (FIG. 3A-i). Similarly, rat pancreatic islet cells were incubated with KRB buffer containing vehicle, glimepiride (GLM, 10 μM) or cytopiloyne at 1.5, 3, 7, 14, 28 and 42 μM in the presence of 3.3 mM glucose (LG, FIG. 3A-ii) or 16.7 mM glucose (HG, FIG. 3A-iii). The insulin levels were determined using an insulin ELISA kit. The data presented as mean±SEM of 3 independent experiments. (B) Fed C57BL mice, which had already received an injection of STZ, were administered with an oral dose of vehicle, cytopiloyne (CP, 0.1, 0.5 and 2.5 mgkg^−1), and an intraperitoneal injection of insulin (Ins, 2.5 IUkg^−1). Blood sugar levels in the STZ-treated mice were determined using a glucometer. (C) C57BL mice, which had already received STZ, were orally administered with a single dose of vehicle, cytopiloyne (CP, 0.5 and 2.5 mgkg^−1), glimepiride (GLM, 2.5 mgkg^−1), or metformin (60 mgkg^−1), followed by an intraperitoneal injection with insulin (Ins). Blood sugar levels in the STZ-treated mice were determined using a glucometer. All the results from 3 independent experiments are expressed as mean±SEM, and P<0.05 was considered to be statistically significant (*). The number of mice (n) is indicated in parentheses.
(§1) Glucose levels in mouse blood samples were measured using an Elite® glucometer (Bayer, Pittsburgh, Pa., USA). Insulin levels in blood samples or islet cell supernatants were determined by ELISA assays (Mercodia, Uppsala, Sweden). The levels of glycosylated HbA1c in mouse blood samples were measured using DCA 2000 analyzer (Bayer, Pittsburgh, Pa., USA).
Pancreatic islets (10 isletsml^−1) from fasted male Wistar rats were incubated with KRB buffer containing vehicle (1 μl DMSO per ml KRB buffer), glimepiride or cytopiloyne in the absence or presence of glucose for 30 min. The KRB buffer was then collected for ELISA assays.

PKCα = PKCα translocation and phosphorylation (Western blot) in RIN-m5F cells; format: cell-based, rat; conditions: PMA 1 μM, glucose 16.7 mM
Procedure: FIGS. 5A-D show the effects of cytopiloyne on calcium mobilization, DAG generation and PKCa activation. (A) After Fura 2-AM loading, RIN-m5F cells were stimulated with 16.7 mM glucose (HG) and cytopiloyne at 7, 14 and 28 μM. Level of intracellular calcium, as shown by the 340/380 nm ratio, was detected using a fluorescence spectrophotometer. (B) RIN-m5F cells were pulsed with ^3H-myristic acid (5 Cim1^−1) for 16 hours. After washing, the cells were stimulated with glucose, cytopiloyne, PMA and glimepiride. Total lipids were separated on a silica thin layer plate. DAG and cholesterol were visualized with iodine vapor and identified by their standards. (C) RIN-m5F cells were incubated with vehicle (Mock), cytopiloyne (CP, 3, 7 and 14 μM), PMA (1 μM) and 16.7 mM (HG). Membrane or cytosolic proteins were subjected to Western blot with anti-PKCα and anti-Actin antibodies. (D) RIN-m5F cells were incubated with vehicle (Mock), cytopiloyne (CP 7 μM) and PMA (1 μM). After lysis, total lystaes were subjected to Western blot with anti-PKCα, anti-phospho-PKCα and anti-Actin antibodies.

db/db mice [2] = test: Blood glucose after a single oral dose in fed diabetic db/db mice; format: in vivo, mouse; conditions: for postprandial blood glucose levels, effect in words: single dose, cytopiloyne 0.1, 0.5 and 2.5 mgkg^−1, glimepiride 2.5 mgkg^−1, diabetic db/db mice; for Blood glucose level: fed db/db mice
Procedure: (§2) After 0.5 h, the levels of postprandial blood sugar and insulin from the mice were monitored for additional 4 h. For continued administration, diabetic db/db males were grouped and tube-fed with vehicle, cytopiloyne (0.5 or 2.5 mgkg^−1 day^−1) or glimepiride (2.5 mg kg^−1 day^−1) for the indicated time, while levels of blood sugar, insulin, and glycosylated HbA1c, and glucose tolerance in these mice were determined. To evaluate the prophylaxis of diabetes, diabetes-free db/db mice at 4 weeks of age were tube-fed with vehicle or cytopiloyne (CP, 0.5 mgkg^−1), once a day, for 4 weeks. Unless indicated otherwise, the mice were fasted for 16 h, then Postprandial blood glucose and insulin in these mice were measured.
as §1
Diabetic db/db mice aged 6 to 8 weeks were grouped, fasted for 12 h, allowed free access to food for 2 h, and removed from food. One half hour after food removal was set as time 0. Postprandial blood was collected from the tail vein of the mice, tube-fed with vehicle, glimepiride (GLM) at 2.5 mg/kg/day and cytopiloyne (CP) at 0.1, 0.5 and 2.5 mg/kg/day. Blood samples were collected at the indicated time intervals (0, 1, 2 and 4 h). The blood glucose levels were determined using a glucometer. The number of mice tested (n) is indicated in parentheses in the first column.

[3] = system: rat pancreatic islet cells; test: Intracellular staining for insulin and FACS in rat pancreatic islet cells; format: cell-based; conditions: 28 μM, brefeldin A, 24 h
Procedure: FIGS. 4A-C show an increase in insulin mRNA and protein content by cytopiloyne in pancreatic islet cells. (A) HIT-T15 β-cells transfected with phINS-Luc and pRL-TK plasmids were incubated with vehicle (NS), glimepiride (GLM, 10 μM), high glucose (HG, 16.7 mM) or cytopiloyne at 7, 14 or 28 μM. Ten μg of cell lysates from these cells underwent to dual luciferase assays. […] (C) Rat pancreatic islet cells were treated with vehicle, glucose (3.3 mM (LG) or 16.7 mM (HG)) or cytopiloyne (CP, 7, 14 and 28 μM) in the presence of brefeldin A for 24 h. After anti-insulin antibody staining, these cells underwent FACS analysis. The percentage of insulin-positive β-cells is shown. All the results from 3 independent experiments are expressed as mean±SEM, and P<0.05 was considered to be statistically significant (*).
The islets were disrupted into individual cells and underwent intracellular staining with anti-insulin antibody and FACS analysis.

db/db mice [4] = test: Prophylaxis of diabetes in diabetes-free db/db mice; format: in vivo, mouse; conditions: 0.5 mgkg^−1 daily for 4 weeks, diabetes-free db/db mice aged 4 weeks
Procedure: FIGS. 2A-B show the prophylactic effect of cytopiloyne in db/db mice. […] Postprandial blood glucose levels in these mice were measured. (B) Blood insulin levels from the mice of […] were measured. Results from 3 independent experiments are expressed as mean±SEM, and P<0.05 was considered to be statistically significant (*).
as §2

[5] = single oral dose 2.5 mg/kg, 0 h
[6] = single oral dose 2.5 mg/kg, 1 h
[7] = single oral dose 2.5 mg/kg, 2 h
[8] = single oral dose 2.5 mg/kg, 4 h

With `CC#CC#CC#CC#CCCC(CO)O[C@@H]1O[C@H](CO)[C@@H](O)[C@H](O)[C@H]1O` (stereo partly drawn) [cytopiloyne, 2-β-D-glucopyranosyloxy-1-hydroxytrideca-5,7,9,11-tetrayne] as the compound, how does the “insulin secretion from rat islets” value ([1]; 16.7 mM glucose KRB, also glucose-free and low glucose media) read?
The value was “enhanced insulin secretion in high glucose medium”.

What about the “insulin secretion in the absence of glucose” value ([1]; high dose, glucose-free KRB buffer) of the same compound?
The value was “can still stimulate insulin secretion to some extent even in the absence of glucose”.

And the “insulin release in pancreatic islets, glucose dependence” value ([1]; low dose (e.g., 3 μM), 0, 3.3 and 16.7 mM glucose)?
Its value is “simulates insulin release in pancreatic islets in a glucose-dependent manner”.

What about the “phosphorylation of PKCα” value (PKCα; cytopiloyne 7 μM) of the same compound?
The value was “increased phosphorylation of PKCα”.

What about the “translocation of PKCα from cytoplasm to membrane” value (PKCα; cytopiloyne 3, 7 and 14 μM) of the same compound?
Its value is “It was the case”.

And the “postprandial blood glucose levels, effect in words” value (db/db mice [2])?
Its value is “significantly reduced postprandial blood glucose levels”.

What about the Blood glucose level (db/db mice [2]; single oral dose 0.1 mg/kg, 0 h) of the same compound?
The Blood glucose level was 373 ± 6 mg/dL.

And the Blood glucose level (db/db mice [2]; single oral dose 0.1 mg/kg, 1 h)?
Its Blood glucose level is 267 ± 12 mg/dL.

And the Blood glucose level (db/db mice [2]; single oral dose 0.1 mg/kg, 2 h)?
Its Blood glucose level is 204 ± 17 mg/dL.

What about the Blood glucose level (db/db mice [2]; single oral dose 0.1 mg/kg, 4 h) of the same compound?
The Blood glucose level was 158 ± 18 mg/dL.

And the Blood glucose level (db/db mice [2]; single oral dose 0.5 mg/kg, 0 h)?
Its Blood glucose level is 369 ± 27 mg/dL.

What about the Blood glucose level (db/db mice [2]; single oral dose 0.5 mg/kg, 1 h) of the same compound?
Its Blood glucose level is 214 ± 15 mg/dL.

What about the Blood glucose level (db/db mice [2]; single oral dose 0.5 mg/kg, 2 h) of the same compound?
Its Blood glucose level is 163 ± 8 mg/dL.

What about the Blood glucose level (db/db mice [2]; single oral dose 0.5 mg/kg, 4 h) of the same compound?
Its Blood glucose level is 132 ± 11 mg/dL.

What about the Blood glucose level (db/db mice [2]; [5]) of the same compound?
The Blood glucose level was 365 ± 9 mg/dL.

And the Blood glucose level (db/db mice [2]; [6])?
The Blood glucose level was 207 ± 11 mg/dL.

And the Blood glucose level (db/db mice [2]; [7])?
Its Blood glucose level is 147 ± 12 mg/dL.

What about the Blood glucose level (db/db mice [2]; [8]) of the same compound?
Its Blood glucose level is 129 ± 11 mg/dL.

What about the “intracellular insulin levels compared to the vehicle treatment” value [3] of the same compound?
Its value is “fivefold”.

What about the “blood sugar control in prophylactic treatment” value (db/db mice [4]) of the same compound?
Its value is “control blood sugar in these mice much better than the control”.

What about the “prevention of T2D” value (db/db mice [4]) of the same compound?
The value was “failed to prevent the disease”.

Which results are given for `CCC1=C(C)CN(C(=O)NCCc2ccc(S(=O)(=O)NC(=O)N[C@H]3CC[C@H](C)CC3)cc2)C1=O` [glimepiride, reference compound]?
postprandial blood glucose levels, effect in words (db/db mice [2]): significantly reduced postprandial blood glucose levels; Blood glucose level (db/db mice [2]; [5]): 378 ± 9 mg/dL; Blood glucose level (db/db mice [2]; [6]): 237 ± 16 mg/dL; Blood glucose level (db/db mice [2]; [7]): 178 ± 20 mg/dL; Blood glucose level (db/db mice [2]; [8]): 187 ± 6 mg/dL

Reference: patent US8575116B1, “Polyacetylenic compounds for protecting against pancreatic islet atrophy” (Academia Sinica, priority 2010, dated 2013)
